Reference: PubChem BioAssay AID1949 (Southern Research Institute, 2009)
Values after ≈ are worked out from the molar mass of the structure shown. Results filed as inconclusive are left out. Active and inactive are the calls of the source. The rule behind the calls is not given here.

These molecules were tested on M. tuberculosis H37Rv growth inhibition (assay: Confirmatory growth inhibition assay against Mycobacterium tuberculosis H37Rv, potency (AID 1949);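 note: bacteria grown 7 days with compound before Alamar blue readout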).
With `O=C(CN(c1ccc(Cl)c(Cl)c1)S(=O)(=O)c1ccccc1)Nc1cccc([N+](=O)[O-])c1` the IC50 was 1.47 µg/mL (≈ 3.06 µM).
`COC(=O)C(C)Sc1nnc(-c2ccc(Br)cc2)o1` (centres undefined) gave an IC50 of 0.99 µg/mL (≈ 2.88 µM).
Work on `O=[N+]([O-])c1ncn(Cc2ccc(Cl)cc2)n1` yielded an IC50 of 7.25 µg/mL (≈ 30.4 µM).
Molecule `O=C1C=C(c2ccccc2)C(=O)c2ccccc21` has an IC50 of 2.68 µg/mL (≈ 11.4 µM).
For `CSc1nc2nc3c(c(=O)n2[nH]1)CCCC3`, the IC50 was 2.96 µg/mL (≈ 12.5 µM).
For `COc1cccc(-n2nnnc2S(C)(=O)=O)c1`, the IC50 was 1.16 µg/mL (≈ 4.56 µM).
With `CCc1ccc(NC(=S)Nc2ccc(Cl)c(Cl)c2)cc1` the IC50 was 1.38 µg/mL (≈ 4.24 µM).
`Cc1cc(OCCCN2CCCC(C)C2)cc(C(C)C)c1` (centres undefined) showed an IC50 of 5.85 µg/mL (≈ 20.2 µM).
In the case of `O=C(COc1cccc2ccccc12)c1ccc(F)cc1`, the IC50 is reported as 2.82 µg/mL (≈ 10.1 µM).
With `CN(C)c1ccc(CNC23CC4CC(CC(C4)C2)C3)cc1` the IC50 was 1.43 µg/mL (≈ 5.03 µM).
`Cc1nc(SCc2csc(C)n2)c2c3c(sc2n1)CCCC3` gave an IC50 of 1.61 µg/mL (≈ 4.63 µM).
In the case of `O=C1c2cccc3cccc(c23)C(=O)N1c1ccc2[nH]c(=O)[nH]c2c1`, the IC50 is reported as 33 µg/mL (≈ 100 µM).
With `C#CCOc1c(Cl)cc(/C=C/[N+](=O)[O-])cc1OC` the IC50 was 29.4 µg/mL (≈ 110 µM).
Work on `CCOC(=O)c1cc(CC)sc1NC(=O)c1cc2ccccc2oc1=O` yielded an IC50 of 0.38 µg/mL (≈ 1.02 µM).
`COc1ccc(C(=O)CCNc2cccc(C)c2)cc1` gave an IC50 of 8.33 µg/mL (≈ 30.9 µM).
`CC(C)(C)c1ccc(C(=O)Nc2ccc(S(=O)(=O)Nc3nccs3)cc2)cc1Br` gave an IC50 of 1.19 µg/mL (≈ 2.41 µM).
With `O=C1c2ccccc2C(=O)c2c1nc1n2CCCC1` the IC50 was > 50 µg/mL (inactive).
`O=C(Nc1ccc(-c2nc3ccccc3c(=O)o2)cc1)c1ccccc1I` was tested, and the IC50 was 0.37 µg/mL (≈ 0.79 µM).
`O=C(Nc1ccc(Cl)cc1)NC1CC2CCC1C2` (centres undefined) showed an IC50 of 0.72 µg/mL (≈ 2.72 µM).
Molecule `CC(Nc1nc(N2CCCCC2)nc2ccccc12)c1ccccc1` (centres undefined) has an IC50 of 2.29 µg/mL (≈ 6.89 µM).
`COC(=O)CSc1[nH]c2ccc(Br)cc2c1[N+](=O)[O-]` was tested, and the IC50 was > 50 µg/mL (inactive).
`CC(=O)Oc1cccc2ccc(/C=C/c3c(F)cccc3Cl)nc12` gave an IC50 of less than 0.1 µg/mL.
Work on `O=C(Nc1ccc(Cl)cc1C(F)(F)F)c1ccc([N+](=O)[O-])o1` yielded an IC50 of 2.42 µg/mL (≈ 7.23 µM).
Work on `COC(=O)C(C)Oc1ccc2c(=O)c(Oc3ccccc3Cl)coc2c1` (centres undefined) yielded an IC50 of 8.57 µg/mL (≈ 22.9 µM).
Molecule `COC(=O)c1ccc(COC(=O)c2ccccc2OC)cc1` has an IC50 of 2.87 µg/mL (≈ 9.56 µM).
Work on `CC1CCN(C(=S)NC(=O)c2ccc(Cl)cc2)CC1` yielded an IC50 of 0.35 µg/mL (≈ 1.18 µM).
`CCNS(=O)(=O)c1ccc(NC(=O)Nc2cccc(C(F)(F)F)c2)cc1` gave an IC50 of 7.85 µg/mL (≈ 20.3 µM).
`Cc1ccc(-c2nn(-c3ccccc3)cc2CNCc2ccccc2)cc1` was tested, and the IC50 was 1.11 µg/mL (≈ 3.14 µM).
`O=C(CSc1nc2ccccc2c(=O)[nH]1)NCc1ccccc1` gave an IC50 of 0.28 µg/mL (≈ 0.86 µM).
`CCn1c(NCc2c(O)ccc3ccccc23)nc2ccccc21` showed an IC50 of 2.05 µg/mL (≈ 6.46 µM).
`Clc1ccc(OCCOCCNCc2ccccc2)c2ccccc12` was tested, and the IC50 was 6.11 µg/mL (≈ 17.2 µM).
With `O=C1c2cccc3cccc(c23)C(=O)N1CCN1CCN(CC(O)COCc2ccc(Cl)cc2)CC1` (centres undefined) the IC50 was 3.05 µg/mL (≈ 6 µM).
With `O=S(=O)(CCSc1nc2ccccc2s1)c1nc2ccccc2s1` the IC50 was 7.23 µg/mL (≈ 18.4 µM).
For `CC(C)(C)c1ccc(C(=O)Nc2cccc(NC(=O)c3cccs3)c2)cc1`, the IC50 was 2.28 µg/mL (≈ 6.02 µM).
`COc1ccc(-c2csc(Nc3ncccc3C)n2)cc1` showed an IC50 of 24.5 µg/mL (≈ 82.5 µM).
In the case of `COC(=O)COc1ccc2c(=O)c(-c3ccc(Cl)cc3)coc2c1`, the IC50 is reported as 0.99 µg/mL (≈ 2.87 µM).
For `CCOC(=O)c1sc(NC(=O)NC2CCCCC2)cc1C`, the IC50 was 0.75 µg/mL (≈ 2.42 µM).
`CC12CC3CC(C)(C1)CC(C(=O)NC1=NCCS1)(C3)C2` gave an IC50 of 13 µg/mL (≈ 44.3 µM).
`O=C(c1ccc2ccccc2c1)N(C1CCCCC1)C1CCCCC1` was tested, and the IC50 was 43 µg/mL (≈ 128 µM).
`Cc1ccc([N+](=O)[O-])cc1NC(=O)Nc1cccc(Cl)c1` showed an IC50 of 0.21 µg/mL (≈ 0.687 µM).
With `CCc1ccc(O)c(NC(=S)NC(=O)c2cccc3ccccc23)c1` the IC50 was 0.16 µg/mL (≈ 0.457 µM).
With `CCOC(=O)COc1ccc(S(=O)(=O)Nc2c(C)cccc2CC)cc1` the IC50 was 0.33 µg/mL (≈ 0.874 µM).
`CCOC(=O)c1cnc2ccc(OC)cc2c1Nc1ccc2c(c1)OCCO2` was tested, and the IC50 was 2.9 µg/mL (≈ 7.62 µM).
For `Cc1ccc(NC(=O)NC23CC4(C)CC(C)(CC(C)(C4)C2)C3)cc1`, the IC50 was > 50 µg/mL (inactive).
Work on `COC(=O)c1ccc(COC(=O)c2ccccc2Cl)cc1` yielded an IC50 of 1.69 µg/mL (≈ 5.55 µM).
`CCOC(=O)COc1ccc(S(=O)(=O)Nc2cccc(Cl)c2C)cc1` was tested, and the IC50 was 3.03 µg/mL (≈ 7.89 µM).
`Fc1ccc(CCNC(=S)Nc2ccc(Nc3ccccc3)cc2)cc1` was tested, and the IC50 was > 50 µg/mL (inactive).
`COc1ccc2[nH]cc(CCNC(=S)Nc3ccc(Nc4ccccc4)cc3)c2c1` was tested, and the IC50 was 2.9 µg/mL (≈ 6.96 µM).
Work on `CN(C)c1ccc(Nc2nc(-c3ccc(O)cc3O)cs2)cc1` yielded an IC50 of 1.54 µg/mL (≈ 4.7 µM).
`Cc1ccc2nc(Cc3nc4ccc(C)cc4[nH]3)[nH]c2c1` was tested, and the IC50 was > 50 µg/mL (inactive).
`Cc1cc(Cl)ccc1NC(=O)CCc1ccc(S(=O)(=O)NC(C)C)cc1` showed an IC50 of 2.93 µg/mL (≈ 7.42 µM).
With `Clc1cccc(Nc2nc(NCc3ccco3)c3ccccc3n2)c1` the IC50 was 1.05 µg/mL (≈ 2.99 µM).
Molecule `COc1ccc(CC(=O)Nc2ccc(-c3nc4ccccc4c(=O)o3)cc2)cc1` has an IC50 of 15.1 µg/mL (≈ 39 µM).
`O=C(CCN1CCC(c2ccccc2)C1)c1ccccc1` (centres undefined) gave an IC50 of 12.5 µg/mL (≈ 44.6 µM).
Molecule `CCn1cc(C(=O)O)c(=O)c2cc(F)c(N3CCN(C(=S)Nc4cc(C(F)(F)F)ccc4Cl)CC3)cc21` has an IC50 of 2.99 µg/mL (≈ 5.37 µM).
In the case of `O=C(CSc1nnc(SCc2cccc3ccccc23)s1)Nc1ccccc1F`, the IC50 is reported as 1.45 µg/mL (≈ 3.28 µM).
For `Cc1ccc(NC(=O)CSc2ccc(F)cc2)cc1`, the IC50 was 12.3 µg/mL (≈ 44.9 µM).
In the case of `CC(C)(C)Nc1nc(N2CCCC2)nc(N2CCCC2)n1`, the IC50 is reported as > 50 µg/mL (inactive).
Molecule `Cc1ccc(C(=O)NC(=S)N(C)Cc2ccccc2)cc1` has an IC50 of 2.53 µg/mL (≈ 8.48 µM).
